Columns and labels:
Type in all cases: biochemical
[1] = molecular target: T1, KRAS G12D (Homo sapiens, UniProt P01116, G12D); assay: HTRF KRAS-SOS1 interaction assay, KRAS G12D; conditions: binned ≤2 μM / >2 μM, read-out: Inhibition of KRAS G12D (IC50)
T1 construct: made in house; host or cells: E. coli, e.g. BL21 (DE3)
In short: (§1)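 Inhibition of the KRAS–SOS1 interaction was measured by HTRF (ex 337, em 620/665 nm) after ≥~10 min incubation. Donor: anti-GST-Eu on GST-KRAS; acceptor: anti-6His-XL665 on His-hSOS1, in HEPES pH 7.4 buffer with DTT, BSA and Igepal. Compounds in duplicate at 0.01–10 μM; IC50 from emission ratio.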

[2] = molecular target: T2, KRAS WT (Homo sapiens, UniProt P01116); assay: HTRF KRAS-SOS1 interaction assay, wildtype KRAS; conditions: binned ≤2 μM / >2 μM, read-out: Inhibition of KRAS WT (IC50)
T2 construct: made in house; host or cells: E. coli, e.g. BL21 (DE3)
In short: as §1

[3] = molecular target: T3, KRAS G12V (Homo sapiens, UniProt P01116, G12V); assay: HTRF KRAS-SOS1 interaction assay, KRAS G12V; conditions: binned ≤2 μM / >2 μM, read-out: Inhibition of KRAS G12V (IC50)
T3 construct: made in house; host or cells: E. coli, e.g. BL21 (DE3)
In short: as §1

[4] = molecular target: T4, KRAS G12S (Homo sapiens, UniProt P01116, G12S); assay: HTRF KRAS-SOS1 interaction assay, KRAS G12S; conditions: binned ≤2 μM / >2 μM, read-out: Inhibition of KRAS G12S (IC50)
T4 construct: made in house; host or cells: E. coli, e.g. BL21 (DE3)
In short: as §1

T4 sequence (P01116 1-188 isoform P01116-2 G12S): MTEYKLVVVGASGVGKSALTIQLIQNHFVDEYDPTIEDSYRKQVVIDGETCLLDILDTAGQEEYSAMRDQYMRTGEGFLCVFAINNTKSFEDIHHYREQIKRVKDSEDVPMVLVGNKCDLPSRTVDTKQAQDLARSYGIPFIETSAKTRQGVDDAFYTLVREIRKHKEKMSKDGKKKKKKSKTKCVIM
T3 sequence (P01116 1-188 isoform P01116-2 G12V): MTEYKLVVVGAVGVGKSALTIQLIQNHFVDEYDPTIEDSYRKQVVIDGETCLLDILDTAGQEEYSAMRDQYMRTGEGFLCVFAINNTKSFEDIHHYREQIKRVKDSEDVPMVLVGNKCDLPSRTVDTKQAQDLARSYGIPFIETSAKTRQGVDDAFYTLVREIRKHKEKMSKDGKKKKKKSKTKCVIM
T1 sequence (P01116 1-188 isoform P01116-2 G12D): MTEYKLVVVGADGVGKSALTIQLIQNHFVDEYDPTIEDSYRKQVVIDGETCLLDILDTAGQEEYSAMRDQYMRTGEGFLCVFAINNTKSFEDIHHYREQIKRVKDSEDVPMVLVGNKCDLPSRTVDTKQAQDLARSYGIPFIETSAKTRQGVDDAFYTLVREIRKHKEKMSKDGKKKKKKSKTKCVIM
T2 sequence (P01116 1-188 isoform P01116-2): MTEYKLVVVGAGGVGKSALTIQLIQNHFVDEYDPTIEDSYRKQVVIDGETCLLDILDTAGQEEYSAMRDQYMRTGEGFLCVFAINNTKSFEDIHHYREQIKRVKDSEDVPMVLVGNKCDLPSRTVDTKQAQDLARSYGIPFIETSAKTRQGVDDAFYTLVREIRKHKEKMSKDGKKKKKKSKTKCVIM

| Compound | IC50 [1] [µM] | IC50 [2] [µM] | IC50 [3] [µM] | IC50 [4] [µM] |
| --- | --- | --- | --- | --- |
| C[C@H](c1cccnc1N)N1CCOc2c(C(F)(F)F)c(-c3ccc(F)c4sc(N)c(C#N)c34)c(F)c3nc(OCC4(CN5CCC(F)(F)CC5)CC4)nc1c23 [Compound 778, 2-amino-4-(4-((R)-1-(2-aminopyridin-3-yl)ethyl)-2-((1-((4,4-difluoropiperidin-1-yl)methyl)cyclopropyl)methoxy)-10-fluoro-8-(trifluoromethyl)-5,6-dihydro-4H-[1,4]oxazepino[5,6,7-de]quinazolin-9-yl)-7-fluorobenzo[b]thiophene-3-carbonitrile] | ≤ 2 | ≤ 2 | ≤ 2 | ≤ 2 |
| C[C@H](c1ccc(F)nc1N)N1CCOc2c(C(F)(F)F)c(-c3ccc(F)c4sc(N)c(C#N)c34)c(F)c3nc(OCC4(CN5CCC(F)CC5)CC4)nc1c23 [Compound 604, 2-amino-4-(4-((R)-1-(2-amino-6-fluoropyridin-3-yl)ethyl)-10-fluoro-2-((1-((4-fluoropiperidin-1-yl)methyl)cyclopropyl)methoxy)-8-(trifluoromethyl)-5,6-dihydro-4H-[1,4]oxazepino[5,6,7-de]quinazolin-9-yl)-7-fluorobenzo[b]thiophene-3-carbonitrile] | ≤ 2 | ≤ 2 | ≤ 2 | ≤ 2 |
| CO[C@H]1CCN(C)[C@@H]1COc1nc2c3c(c(C(F)(F)F)c(-c4ccc(F)c5sc(N)c(C#N)c45)c(F)c3n1)OCCN2[C@H](C)c1cccnc1N [Compound 673, 2-amino-4-(4-((R)-1-(2-aminopyridin-3-yl)ethyl)-10-fluoro-2-(((2R,3S)-3-methoxy-1-methylpyrrolidin-2-yl)methoxy)-8-(trifluoromethyl)-5,6-dihydro-4H-[1,4]oxazepino[5,6,7-de]quinazolin-9-yl)-7-fluorobenzo[b]thiophene-3-carbonitrile] | ≤ 2 | ≤ 2 | ≤ 2 | ≤ 2 |
| C[C@H](c1cccnc1N)N1CCOc2c(Cl)c(-c3ccc(F)c4sc(N)c(C#N)c34)c(F)c3nc(OC[C@@]45CCCN4CC(=NOCC(F)(F)F)C5)nc1c23 (mixture of isomers) [Compound 917, 2-amino-4-(4-((R)-1-(2-aminopyridin-3-yl)ethyl)-8-chloro-10-fluoro-2-(((S)-2-((2,2,2-trifluoroethoxy)imino)tetrahydro-1H-pyrrolizin-7a(5H)-yl)methoxy)-5,6-dihydro-4H-[1,4]oxazepino[5,6,7-de]quinazolin-9-yl)-7-fluorobenzo[b]thiophene-3-carbonitrile] | ≤ 2 | ≤ 2 | ≤ 2 | ≤ 2 |
| C[C@H](c1cc(Cl)cnc1N)N1CCOc2c(C(F)(F)F)c(-c3ccc(F)c4sc(N)c(C#N)c34)c(F)c3nc(OC[C@@]45CCCN4C[C@H](F)C5)nc1c23 (single isomer, unassigned) [Compound 702] | > 2 | > 2 | > 2 | > 2 |
| C[C@H](c1cccnc1N)N1CCOc2c(Cl)c(-c3ccc(F)c4sc(N)c(C#N)c34)c(F)c3nc(OC[C@@H]4CC(F)(F)CN4C)nc1c23 (single isomer, unassigned) [Compound 741] | ≤ 2 | ≤ 2 | ≤ 2 | ≤ 2 |
| Cc1ccc([C@@H](C)N2CCOc3c(Cl)c(-c4ccc(F)c5sc(N)c(C#N)c45)c(F)c4nc(OC[C@@]56CCCN5C[C@H](F)C6)nc2c34)c(N)n1 [Compound 736, 2-amino-4-(4-((R)-1-(2-amino-6-methylpyridin-3-yl)ethyl)-8-chloro-10-fluoro-2-(((2R,7aS)-2-fluorotetrahydro-1H-pyrrolizin-7a(5H)-yl)methoxy)-5,6-dihydro-4H-[1,4]oxazepino[5,6,7-de]quinazolin-9-yl)-7-fluorobenzo[b]thiophene-3-carbonitrile] | ≤ 2 | ≤ 2 | ≤ 2 | ≤ 2 |

Reference: patent US12668600B2 (Kumquat Biosciences Inc., priority 2023, dated 2026)
